Values joined by “and” are separate entries in the source; they are usually repeats but may differ in a detail not shown here. Identical values can stand only once. Like-named read-outs stand apart in the source and are kept apart here.
Tests used:
Human HDAC8 = biological target: T1, Human HDAC8 (Homo sapiens, UniProt Q9BY41); experiment: Biochemical HDAC assay, HDAC8; conditions: incubation time 10 min
T1 construct: full-length with a C-terminal His tag; His tag (C); made in house
T1 sequence (Q9BY41 1-377): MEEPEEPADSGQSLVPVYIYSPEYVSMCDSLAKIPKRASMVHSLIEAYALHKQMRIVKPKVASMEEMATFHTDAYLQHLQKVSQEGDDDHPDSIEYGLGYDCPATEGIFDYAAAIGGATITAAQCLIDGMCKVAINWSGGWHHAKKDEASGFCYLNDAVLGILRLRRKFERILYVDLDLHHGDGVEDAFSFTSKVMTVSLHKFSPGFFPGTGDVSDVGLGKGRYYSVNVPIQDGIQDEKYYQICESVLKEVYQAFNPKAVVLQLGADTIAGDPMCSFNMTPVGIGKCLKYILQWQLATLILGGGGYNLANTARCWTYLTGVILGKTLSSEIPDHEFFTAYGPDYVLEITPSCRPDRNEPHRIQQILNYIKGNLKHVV
Protocol: Human HDAC8 (GenBank Accession No. NM_018486), full-length with a C-terminal His tag, MW=46.4 kDa, was expressed in a baculovirus expression system.
• I. Compound handling: Testing compounds were dissolved in 100% DMSO to a specific concentration. The serial dilution was conducted by epMotion 5070 in DMSO. • II. HDAC reaction buffer: 50 mM Tris-HCl, pH8.0, 137 mM NaCl, 2.7 mM KCl, and 1 mM MgCl2, Added fresh: 1 mg/ml BSA, 1% DMSO. • III. Substrate: Fluorogenic HDAC General Substrate for HDAC1, 2, 3, 6, 10, 11 ans Sirt1, 2 and 3: Arg-His-Lys-Lys(Ac); HDAC8 only substrate: Arg-His-Lys(Ac)-Lys(Ac); Class2A Substrate (HDAC4, 5, 7 and 9): Acetyl-Lys(trifluoroacetyl)-AMC; Sirt5 substrate: Ac-Lys(succinyl)-AMC. • IV. General Reaction Procedure: (Standard IC50 determination) • a. Delivered 2× enzyme in wells of reaction plate except No Enzyme (No En) control wells. Add buffer in No En wells. • b. Delivered compounds in 100% DMSO into the enzyme mixture by Acoustic technology (Echo550; nanoliter range). Spin down and pre-incubation. • c. Delivered 2× Substrate Mixture (Fluorogenic HDAC Substrate and co-factor (500 μM of Nicotinamide adenine dinucleotide (NAD^+) in all Sirt assay) in all reaction wells to initiate the reaction. Spin and shake. • d. Incubated for 1-2 hr. at 30° C. with seal. • e. Added Developer with Trichostatin A (or TMP269 or NAD^+) to stop the reaction and to generate fluorescent color. • f. Fluorescence was read (excitatory, 360; emission, 460) using the EnVision Multilabel Plate Reader (Perkin Elmer) • g. Endpoint reading was taken for analysis after the development reaches plateau. • V. Data Analysis: The percentages of enzyme activity (relative to DMSO controls) and IC50 values were calculated using the GraphPad Prism 4 program based on a sigmoidal dose-response equation.
Compounds with indicated doses was tested in the biochemical assays of HDAC1, HDAC2, HDAC3, HDAC4, HDAC5, HDAC6, HDAC7, HDAC8, HDAC9, HDAC10, or HDAC11 enzyme. The incubation time in HDAC1/2 assays are 120 min, and that for other HDACs are 10 min. The curve fit and IC50 values were calculated using the GraphPad Prism 4 program based on a sigmoidal dose-response equation.

[1] = Brain exposure experiment in mice; assay type: in vivo; conditions: 1 hour after exposure
Protocol: Brain exposure experiments were performed wherein mice were exposed to compound Example 5 at an IV dosage of 1 mg/kg (Table 4).

[2] = Mouse plasma PK (IV and PO dosing); assay type: in vivo, Male C57 Bl/6J mice; conditions: for AUC(0-inf): read-out: AUCINF—obs (converted); for MRT inf: read-out: MRTINF—obs
Protocol: In vivo PK (pharmacokinetics) studies were run at Scripps Florida DMPK Core facility. Mouse plasma PK data was obtained using the compound of Example 5 (N-(2-amino-5-(thiophen-2-yl)phenyl)-2-oxo-1,2,3,4-tetrahydroquinoline-6-carboxamide)
Dose: 1 mg/kg intravenous (IV), 7 mg/kg oral dosing (PO)
Formulation: 0.1 mg/mL (IV) and 1 mg/mL (PO) solution in 10/10/80 DMSO/Tween80/Water
Mice Info: Male C57 Bl/6J
Plasma PK were evaluated in mice after administration of compound Example 5. […] (Tmax), maximal concentration (Cmax), observed clearance (Cl_obs), mean residential time (MRT), and observed volume distribution (Vss_obs) were also quantified (Tables 2 and 3).

[3] = IV 1 mg/kg, individual mice, 1 mg/kg
[4] = IV 1 mg/kg, mouse plasma, average
[5] = IV 1 mg/kg, mouse plasma, individual mice, 1 mg/kg
[6] = IV administration, mouse plasma
[7] = PO 7 mg/kg, mouse plasma, average
[8] = PO 7 mg/kg, mouse plasma, individual mice, 7 mg/kg
[9] = male, C57 Bl/6J, mouse, plasma, iv, 1 mg/kg, IV 1 mg/kg, mouse plasma, average
[10] = male, C57 Bl/6J, mouse, plasma, iv, 1 mg/kg, IV 1 mg/kg, mouse plasma, individual mice
[11] = male, C57 Bl/6J, mouse, plasma, po, 7 mg/kg, PO 7 mg/kg, mouse plasma, average
[12] = male, C57 Bl/6J, mouse, plasma, po, 7 mg/kg, PO 7 mg/kg, mouse plasma, individual mice

## Nc1ccc(-c2cccs2)cc1NC(=O)c1ccc2c(c1)CCC(=O)N2 [Example 5, N-(2-amino-5-(thiophen-2-yl)phenyl)-2-oxo-1,2,3,4-tetrahydroquinoline-6-carboxamide]
Human HDAC8
  IC50: > 10 µM
[1]; IV 1 mg/kg
  brain penetration (in words): no brain penetration
[1]; [3]
  Brain concentration: 0 ng/mL
  Plasma concentration: 206 ng/mL and 0.57 μM and 270 ng/mL and 0.74 μM
[1]; IV 1 mg/kg, individual mice, 1 mg/kg, read-out: Brain concentration
  concentration at 1 h: 0.00 µM
[1]; mouse, brain, iv, 1 mg/kg, average, read-out: Brain concentration
  concentration at 1 h: 0 ng/mL and 0 nM
[1]; mouse, brain, iv, 1 mg/kg, individual mice, read-out: Brain concentration
  concentration at 1 h: 0 ng/mL and 0 nM
[1]; mouse, plasma, iv, 1 mg/kg, average, read-out: Plasma concentration
  concentration at 1 h: 267 ng/mL and 730 nM
[1]; mouse, plasma, iv, 1 mg/kg, individual mice, read-out: Plasma concentration
  concentration at 1 h: 324 ng/mL and 890 nM
[2]; [4]
  AUC (% Extrap): 1.42%
  Cl_obs: 5.33 mL/min/kg
  Vss_obs: 0.40 L/kg
[2]; [5]
  AUC (% Extrap): 1.31% and 1.23% and 1.71%
  AUCINF—obs: 184402 ng·min/mL and 207009 ng·min/mL
  AUClast: 8.36 μM · hr and 9.34 μM · hr and 182140 min * ng/mL and 203467 min * ng/mL
  Cl_obs: 5.75 mL/min/kg and 5.42 mL/min/kg and 4.83 mL/min/kg
  Cmax: 2480 ng/mL and 4540 ng/mL and 5820 ng/mL
  MRTINF—obs: 1.19 h and 1.14 h
  T1/2: 1.52 h and 1.59 h
  Tmax: 0.08 hr (2×) and 0.25 hr
  Vss_obs: 0.48 L/kg and 0.39 L/kg and 0.33 L/kg
[2]; IV 1 mg/kg, mouse plasma, individual mice, 1 mg/kg, read-out: Cmax
  Cmax: 6.83 µM and 12.5 µM and 16 µM
[2]; [6]
  clearance (in words): low clearance
  volume (in words): low volume
[2]; [7]
  AUC (% Extrap): 9.95%
  Cl_obs: 25.89 mL/min/kg
[2]; [8]
  AUC (% Extrap): 6.21% and 14.68% and 8.96%
  AUCINF—obs: 227793 ng·min/mL and 250553 ng·min/mL
  AUClast: 8.92 μM · hr and 10.47 μM · hr and 194363 min * ng/mL and 228113 min * ng/mL
  Cl_obs: 18.99 mL/min/kg and 30.73 mL/min/kg and 27.94 mL/min/kg
  Cmax: 1590 ng/mL and 1620 ng/mL
  T1/2: 3.30 h and 2.62 h
  Tmax: 1.00 hr and 0.25 hr (2×)
[2]; PO 7 mg/kg, mouse plasma, individual mice, 7 mg/kg, read-out: Cmax
  Cmax: 4.38 µM and 4.46 µM
[2]; male, C57 Bl/6J, 1 mg/kg, IV administration, mouse plasma, read-out: AUC
  AUC: 8.5 µM·h
[2]; male, C57 Bl/6J, 7 mg/kg, PO dosing, mouse plasma, read-out: AUC (area under the curve)
  AUC: 11 to 12 µM·h
[2]; [9]
  AUC(0-t): 8.53 µM·h and 3100 ng·h/mL
  AUC(0-inf): 3140 ng·h/mL
  MRT inf: 1.24 h
[2]; male, C57 Bl/6J, mouse, plasma, iv, 1 mg/kg, IV 1 mg/kg, mouse plasma, average, read-out: Cmax
  Cmax: 4280 ng/mL and 11.8 µM
[2]; male, C57 Bl/6J, mouse, plasma, iv, 1 mg/kg, IV 1 mg/kg, mouse plasma, average, read-out: T1/2 (converted)
  half-life: 1.48 h
[2]; male, C57 Bl/6J, mouse, plasma, iv, 1 mg/kg, IV 1 mg/kg, mouse plasma, average, read-out: Tmax
  Tmax: 0.14 h
[2]; [10]
  AUC(0-t): 7.88 µM·h and 2860 ng·h/mL
  AUC(0-inf): 2900 ng·h/mL
  MRT inf: 1.39 h
[2]; male, C57 Bl/6J, mouse, plasma, iv, 1 mg/kg, IV 1 mg/kg, mouse plasma, individual mice, read-out: T1/2 (converted)
  half-life: 1.34 h
[2]; male, C57 Bl/6J, mouse, plasma, iv, 1 mg/kg, IV administration, mouse plasma, read-out: half-life (T1/2) (converted)
  half-life: 1.5 h
[2]; [11]
  AUC(0-t): 11.8 µM·h and 4270 ng·h/mL
  AUC(0-inf): 4710 ng·h/mL
[2]; male, C57 Bl/6J, mouse, plasma, po, 7 mg/kg, PO 7 mg/kg, mouse plasma, average, read-out: Cmax
  Cmax: 1960 ng/mL and 5.4 µM
[2]; male, C57 Bl/6J, mouse, plasma, po, 7 mg/kg, PO 7 mg/kg, mouse plasma, average, read-out: T1/2 (converted)
  half-life: 2.66 h
[2]; male, C57 Bl/6J, mouse, plasma, po, 7 mg/kg, PO 7 mg/kg, mouse plasma, average, read-out: Tmax
  Tmax: 0.5 h
[2]; [12]
  AUC(0-t): 15.9 µM·h and 5760 ng·h/mL
  AUC(0-inf): 6140 ng·h/mL
[2]; male, C57 Bl/6J, mouse, plasma, po, 7 mg/kg, PO 7 mg/kg, mouse plasma, individual mice, read-out: Cmax
  Cmax: 2670 ng/mL and 7.36 µM
[2]; male, C57 Bl/6J, mouse, plasma, po, 7 mg/kg, PO 7 mg/kg, mouse plasma, individual mice, read-out: T1/2 (converted)
  half-life: 2.05 h
[2]; male, C57 Bl/6J, mouse, plasma, po, 7 mg/kg, PO dosing, mouse plasma, read-out: half-life (converted)
  half-life: 2.7 h
[2]; male, C57 Bl/6J, plasma, PO 7 mg/kg vs IV 1 mg/kg, mouse, read-out: % F (bioavailability)
  bioavailability: 20%

Reference: patent US20190270733A1, “Quinoline and Isoquinoline Based HDAC Inhibitors and Methods of Use Thereof” (Reaction Biology Corp., priority 2018, published 2019)
